{"source": "patent US20090047243A1", "about": "“COMBINATIONS FOR THE TREATMENT OF B-CELL PROLIFERATIVE DISORDERS” (priority 2007, published 2009)", "key": {"patient CLL cells": {"tested_on": "patient CLL cells", "experiment": "Apoptosis assay (Hoechst 33342, flow cytometry, 48 h)", "format": "cell-based, human", "parameters": "unit not given here", "conditions": "CGS-21680 0 μM", "from_the_text": "Blood samples were obtained in heparinized tubes with IRB-approved consent from flow cytometry-confirmed B-CLL patients that were either untreated or for whom at least 1 month had elapsed since chemotherapy. Patients with active infections or other serious medical conditions were not included in this study. Patients with white blood cell counts of less than 15,000/μl by automated analysis were excluded from this study. Whole blood was layered on Ficoll-Hystopaque (Sigma), and peripheral blood mononuclear cells (PBMC) isolated after centrification. […] One million cells were stained with anti-CD5-PE and anti-CD19-PE-Cy5 (Becton Dickenson, Franklin Lakes N.J.). The percentage of B-CLL cells was defined as the percentage of cells doubly expressing CD5 and CDl9, as determined by flow cytometry. […] Compound master plates were diluted 1:50 into complete media to create working compound dilutions. Compound crosses were then created by diluting two working dilution plates 1:10 into each plate of cells. […] Hoechst 33342 (Molecular Probes, Eugene Oreg.) at a final concentration of 0.25 μg/1 mL was added to each well, and the cells incubated at 37° C. for an additional ten minutes before being placed on ice until analysis. Plates were then analyzed on a LSR-II flow cytometer (Becton Dickenson, Franklin Lakes, N.J.) equipped with the High Throughput Sampling (HTS) option in high throughput mode. […] The apoptotic fraction was calculated using FlowJo software (Tree Star Inc., Ashland, Oreg.) after excluding debris by a FSC/SSC gate and subsequently gating for cells that accumulate the Hoechst dye."}, "ANBL6 MM cell line": {"tested_on": "ANBL6 MM cell line", "experiment": "Anti-proliferation assay (ATPLite, 72 h)", "format": "cell-based, human", "conditions": "CGS-21680 × PDE inhibitor", "protocol": "(§1) ANBL6 and INA-6 culture media was also supplemented with 10 ng/ml IL-6. […] MM.1S, MM.1R, OCI-ly10, Karpas 422, and SU-DHL6 cells were provided by the Dana Farber Cancer Institute. H929, RPMI-8226, GA-10, and Farage cells were from ATCC (Cat #'s CCL-155, CRL-9068, CRL-2392 and CRL-2630 respectively). MOLP-8, EJM, KSM-12-PE, and OPM2 were from DSMZ. The ANBL6 and INA-6 cell lines were provided by the M. D. Anderson Cancer Research Center. Compounds were prepared in DMSO at 1000× the highest desired concentration. Master plates were generated consisting of serially diluted compounds in 2- or 3-fold dilutions in 384-well format. For single agent dose response curves, the master plates consisted of 9 individual compounds at 12 concentrations in 2- or 3-fold dilutions. For combination matrices, master plates consisted of individual compounds at 6 or 9 concentrations at 2- or 3-fold dilutions. […] To obtain combination data, two master plates were diluted into the assay plates. […] Thirty microliters of ATPLite (Perkin Elmer) at room temperature was then added to each well. […] Measurements were taken at the top of the well using a luminescence aperture and a read time of 0.1 seconds per well. The percent inhibition (% I) for each well was calculated using the following formula: % I=[(avg. untreated wells-treated well)/(avg. untreated wells)]×100. […] Negative inhibition values result from local variations in treated wells as compared to untreated wells. […] The uncertainty of each fitted parameter was estimated from the range over which the change in reduced chi-squared was less than one, or less than minimum reduced chi-squared if that minimum exceeded one, to allow for underestimated σI errors. Single agent curve data were used to define a dilution series for each compound to be used for combination screening in a 6×6 matrix format. […] The Loewe additivity model was used to quantify combination effects. […] A “Synergy Score” was also used, where the Synergy Score S=log fX log fY ΣIdata(Idata-ILoewe), summed over all non-single-agent concentration pairs, and where log fX,Y is the natural logarithm of the dilution factors used for each single agent. This effectively calculates a volume between the measured and Loewe additive response surfaces, weighted towards high inhibition and corrected for varying dilution factors. An uncertainty σS was calculated for each synergy score, based on the measured errors for the Idata values and standard error propagation."}, "INA-6 MM cell line": {"tested_on": "INA-6 MM cell line", "experiment": "Anti-proliferation assay (ATPLite, 72 h)", "format": "cell-based, human", "conditions": "CGS-21680 × PDE inhibitor", "protocol": "as §1"}, "OPM2 MM cell line": {"tested_on": "OPM2 MM cell line", "experiment": "Anti-proliferation assay (ATPLite, 72 h)", "format": "cell-based, human", "conditions": "CGS-21680 × PDE inhibitor", "protocol": "as §1"}, "KSM-12-PE MM cell line": {"tested_on": "KSM-12-PE MM cell line", "experiment": "Anti-proliferation assay (ATPLite, 72 h)", "format": "cell-based, human", "conditions": "CGS-21680 × PDE inhibitor", "protocol": "as §1"}, "MOLP-8 MM cell line": {"tested_on": "MOLP-8 MM cell line", "experiment": "Anti-proliferation assay (ATPLite, 72 h)", "format": "cell-based, human", "conditions": "CGS-21680 × PDE inhibitor", "protocol": "as §1"}, "EJM MM cell line": {"tested_on": "EJM MM cell line", "experiment": "Anti-proliferation assay (ATPLite, 72 h)", "format": "cell-based, human", "conditions": "CGS-21680 × PDE inhibitor", "protocol": "as §1"}, "[1]": {"tested_on": "phosphodiesterase (PDE) types", "conditions": "PDE type(s) in brackets after the name; cited from earlier work"}, "[2]": {"tested_on": "human multiple myeloma cells (MM.1S)", "experiment": "Anti-proliferation assay (ATPLite, 72 h)", "format": "cell-based", "parameters": "key to synergy score / synergy (score), PDEi × HE-NECA: S = lnfX·lnfY·ΣIdata(Idata−ILoewe), volume over Loewe additivity", "procedure,_shortened": "(§2)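 Cells treated 72 h with compounds in 2- or 3-fold serial dilutions (12 concentrations for single agents; 6×6 matrix for combinations); INA-6 medium supplemented with 10 ng/ml IL-6. Viability by ATPLite luminescence; % inhibition vs untreated wells, curves fitted, combinations assessed by Loewe additivity and Synergy Score.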"}, "[3]": {"tested_on": "human multiple myeloma cells (MM.1R)", "experiment": "Anti-proliferation assay (ATPLite, 72 h)", "format": "cell-based", "parameters": "key: S = lnfX·lnfY·ΣIdata(Idata−ILoewe), volume over Loewe additivity", "procedure,_shortened": "as §2"}, "[4]": {"tested_on": "H929 multiple myeloma cell line", "experiment": "Anti-proliferation assay (ATPLite, 72 h)", "format": "cell-based, human", "parameters": "key: S = lnfX·lnfY·ΣIdata(Idata−ILoewe), volume over Loewe additivity", "procedure,_shortened": "as §2"}, "[5]": {"tested_on": "RPMI-8226 multiple myeloma cell line", "experiment": "Anti-proliferation assay (ATPLite, 72 h)", "format": "cell-based, human", "parameters": "key: S = lnfX·lnfY·ΣIdata(Idata−ILoewe), volume over Loewe additivity", "procedure,_shortened": "as §2"}}, "data": [{"smiles": "O=C(Nc1c(Cl)cncc1Cl)c1ccc(OC(F)F)c(OCC2CC2)c1", "note": "[Roflumilast, 3-(cyclopropylmethoxy)-N-(3,5-dichloro-4-pyridinyl)-4-(difluoromethoxy)-benzamide]", "values": [{"measurement": "Induction of apoptosis", "setting": "patient CLL cells; Roflumilast 0.03 μM", "result": 17}, {"measurement": "Induction of apoptosis", "setting": "patient CLL cells; Roflumilast 0.09 μM", "result": 26}, {"measurement": "Induction of apoptosis", "setting": "patient CLL cells; Roflumilast 0.27 μM", "result": 32}, {"measurement": "synergy score", "setting": "ANBL6 MM cell line", "result": 3.73}, {"measurement": "synergy score", "setting": "INA-6 MM cell line", "result": 2.62}, {"measurement": "synergy score", "setting": "OPM2 MM cell line", "result": 0.29}, {"measurement": "synergy score", "setting": "KSM-12-PE MM cell line", "result": 0.27}, {"measurement": "synergy score", "setting": "MOLP-8 MM cell line", "result": 3.44}, {"measurement": "synergy score", "setting": "EJM MM cell line", "result": 1.06}, {"measurement": "PDE inhibitors (specificity)", "setting": "[1]", "result": "Roflumilast (4)"}, {"measurement": "inhibition at 0.0631 µM", "setting": "[2]; Homo sapiens, MM1.S, Roflumilast 0.0631 μM, Cl-IB-MECA conc. (μM), read-out: Percent inhibition of ATP in MM.1S cells", "result": -7.1, "unit": "%"}, {"measurement": "inhibition at 0.126 µM", "setting": "[2]; Homo sapiens, MM1.S, Roflumilast 0.126 μM, Cl-IB-MECA conc. (μM), read-out: Percent inhibition of ATP in MM.1S cells", "result": 1.5, "unit": "%"}, {"measurement": "inhibition at 0.252 µM", "setting": "[2]; Homo sapiens, MM1.S, Roflumilast 0.252 μM, Cl-IB-MECA conc. (μM), read-out: Percent inhibition of ATP in MM.1S cells", "result": -3.5, "unit": "%"}, {"measurement": "inhibition at 0.505 µM", "setting": "[2]; Homo sapiens, MM1.S, Roflumilast 0.505 μM, Cl-IB-MECA conc. (μM), read-out: Percent inhibition of ATP in MM.1S cells", "result": 11, "unit": "%"}, {"measurement": "inhibition at 1.01 µM", "setting": "[2]; Homo sapiens, MM1.S, Roflumilast 1.01 μM, Cl-IB-MECA conc. (μM), read-out: Percent inhibition of ATP in MM.1S cells", "result": 7.5, "unit": "%"}, {"measurement": "synergy score", "setting": "[2]; PDE inhibitor crossed with (S) ENBA, MM.1S", "result": 2.19}, {"measurement": "synergy score", "setting": "[2]; PDE inhibitor crossed with Chloro-IB-MECA, MM.1S", "result": 2.12}, {"measurement": "synergy score", "setting": "[2]; PDE inhibitor crossed with HE-NECA, MM.1S", "result": 2}, {"measurement": "synergy score", "setting": "[2]; in combination with adenosine receptor agonist CGS-21680, MM.1S", "result": 3.82}, {"measurement": "synergy score", "setting": "[2]; in combination with adenosine receptor agonist HE-NECA, MM.1S", "result": 2}, {"measurement": "synergy score", "setting": "[2]; in combination with adenosine receptor agonist regadenoson, MM.1S", "result": 3.56}, {"measurement": "synergy score", "setting": "[3]; in combination with adenosine receptor agonist CGS-21680, MM.1R", "result": 3.61}, {"measurement": "synergy score", "setting": "[3]; in combination with adenosine receptor agonist regadenoson, MM.1R", "result": 5.83}, {"measurement": "synergy score", "setting": "[4]; PDE inhibitor crossed with (S) ENBA, H929", "result": 1.77}, {"measurement": "synergy score", "setting": "[4]; PDE inhibitor crossed with Chloro-IB-MECA, H929", "result": 1.16}, {"measurement": "synergy score", "setting": "[4]; PDE inhibitor crossed with HE-NECA, H929", "result": 0.98}, {"measurement": "synergy score", "setting": "[4]; in combination with adenosine receptor agonist CGS-21680, H929", "result": 3.71}, {"measurement": "synergy score", "setting": "[4]; in combination with adenosine receptor agonist HE-NECA, H929", "result": 0.98}, {"measurement": "synergy score", "setting": "[4]; in combination with adenosine receptor agonist regadenoson, H929", "result": 2.7}, {"measurement": "synergy score", "setting": "[5]; in combination with adenosine receptor agonist CGS-21680, RPMI 8226", "result": 0.69}, {"measurement": "synergy score", "setting": "[5]; in combination with adenosine receptor agonist HE-NECA, RPMI-8226", "result": 0.466}, {"measurement": "synergy score", "setting": "[5]; in combination with adenosine receptor agonist regadenoson, RPMI 8226", "result": 1.12}]}]}
